Structures can show the parent of a compound that is named as a salt.
Experiments:
purified CK2α enzyme = purified CK2α enzyme (Homo sapiens, UniProt P68400); experiment: CK2 Protein Kinase Inhibition Assay (coupled PK/LDH assay); format: biochemical; conditions: CK2 enzyme 25 nM, 100 μM ATP, 37° C., Morrison equation
How it was run: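 Purified CK2α at 25 nM final, 1.5 mM peptide substrate, 100 μM ATP, pH 8.25 Tris buffer; compounds pre-incubated 10 min at 37° C. ADP coupled via PK/LDH to NADH loss at 340 nm over 30 min, 37° C. Ki from rate versus concentration by Morrison equation, triplicate points.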

Chain of purified CK2α enzyme (P68400 whole entry): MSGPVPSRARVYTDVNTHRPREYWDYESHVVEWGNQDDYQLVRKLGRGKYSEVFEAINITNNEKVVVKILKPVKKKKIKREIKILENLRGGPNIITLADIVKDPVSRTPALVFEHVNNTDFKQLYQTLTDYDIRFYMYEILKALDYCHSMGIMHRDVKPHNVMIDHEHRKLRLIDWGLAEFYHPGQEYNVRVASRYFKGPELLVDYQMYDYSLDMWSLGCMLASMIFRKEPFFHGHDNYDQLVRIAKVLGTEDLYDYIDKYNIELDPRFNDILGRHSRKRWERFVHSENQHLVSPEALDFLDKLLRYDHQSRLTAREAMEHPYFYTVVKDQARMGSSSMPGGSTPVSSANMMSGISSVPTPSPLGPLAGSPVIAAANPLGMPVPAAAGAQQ

With `CN(CCN)c1ccc(Nc2nc(NC3CC3)c3ncc(C#N)n3n2)cc1C[S+](C)[O-]` (racemic) (as salt: trifluoroacetic acid salt) [Example 49, (±)-2-((4-((2-aminoethyl)(methyl)amino)-3-((methylsulfinyl)methyl)phenyl)amino)-4-(cyclopropylamino)imidazo[2,1-f][1,2,4]triazine-7-carbonitrile mono trifluoroacetic acid salt] the melting point was 93 to 97 °C.
For `CN(CCN)c1ccc(Nc2nc(NC3CC3)n3ncc(C#N)c3n2)cc1C[S+](C)[O-]` (racemic) (as salt: trifluoroacetic acid salt) [Example 51, (±)-2-((4-((2-aminoethyl)(methyl)amino)-3-((methylsulfinyl)methyl)phenyl)amino)-4-(cyclopropylamino)pyrazolo[1,5-a][1,3,5]triazine-8-carbonitrile mono trifluoroacetic acid salt], the melting point was 78 to 82 °C.
For `CC(N)c1ccc(Nc2cc(NC3CC3)n3ncc(C#N)c3n2)cc1C[S+](C)[O-]` (racemic) (as salt: trifluoroacetic acid salt) [Example 58, (±)-5-((4-((R,S)-1-Aminoethyl)-3-((methylsulfinyl)methyl)phenyl)amino)-7-(cyclopropylamino)pyrazolo[1,5-a]pyrimidine-3-carbonitrile mono trifluoroacetic acid salt], the melting point was 161 to 165 °C.
For `C[S+]([O-])Cc1cc(Nc2cc(NC3CC3)n3ncc(C#N)c3n2)ccc1C1(N)CC1` (racemic) (as salt: trifluoroacetic acid salt) [Example 59, (±)-5-((4-(1-Aminocyclopropyl)-3-((methylsulfinyl)methyl)phenyl)amino)-7-(cyclopropylamino)pyrazolo[1,5-a]pyrimidine-3-carbonitrile mono trifluoroacetic acid salt], the melting point was 185 to 189 °C.
Work on `C/C(=C\CN)c1ccc(Nc2cc(NC3CC3)n3ncc(C#N)c3n2)cc1C[S+](C)[O-]` (racemic) (as salt: trifluoroacetic acid salt) [Example 60, (±)-(E)-5-((4-(4-aminobut-2-en-2-yl)-3-((methylsulfinyl)methyl)phenyl)amino)-7-(cyclopropylamino)pyrazolo[1,5-a]pyrimidine-3-carbonitrile mono trifluoroacetic acid salt] yielded a melting point of 249 to 253 °C.
In the case of `C[S+]([O-])Cc1cc(Nc2cc(NC3CC3)n3ncc(C#N)c3n2)ccc1C1CCCNC1` (racemic) (as salt: trifluoroacetic acid salt) [Example 61, (±)-7-(Cyclopropylamino)-5-((3-((methylsulfinyl)methyl)-4-((R,S)-piperidin-3-yl)phenyl)amino)pyrazolo[1,5-a]pyrimidine-3-carbonitrile mono trifluoroacetic acid salt], the melting point is reported as 55 to 59 °C.
Compound `C[S+]([O-])Cc1cc(Nc2cc(NC3CC3)n3ncc(C#N)c3n2)ccc1C1=CCNC1` (racemic) (as salt: trifluoroacetic acid salt) [Example 62, (±)-7-(Cyclopropylamino)-5-((4-(2,5-dihydro-1H-pyrrol-3-yl)-3-((methylsulfinyl)methyl)phenyl)amino)pyrazolo[1,5-a]pyrimidine-3-carbonitrile mono trifluoroacetic acid salt] has a melting point of 147 to 151 °C.
Work on `C[S+]([O-])Cc1cc(Nc2cc(NC3CC3)n3ncc(C#N)c3n2)ccc1C1CCNC1` (racemic) (as salt: trifluoroacetic acid salt) [Example 63, (±)-7-(Cyclopropylamino)-5-((3-((methylsulfinyl)methyl)-4-((R,S)-pyrrolidin-3-yl)phenyl)amino)pyrazolo[1,5-a]pyrimidine-3-carbonitrile mono trifluoroacetic acid salt] yielded a melting point of 173 to 177 °C.
In the case of `CC(CCN)c1ccc(Nc2cc(NC3CC3)n3ncc(C#N)c3n2)cc1C[S+](C)[O-]` (racemic) (as salt: trifluoroacetic acid salt) [Example 64, (±)-5-((4-(R,S)-4-Aminobutan-2-yl)-3-((methylsulfinyl)methyl)phenyl)amino)-7-(cyclopropylamino)pyrazolo[1,5-a]pyrimidine-3-carbonitrile mono trifluoroacetic acid salt], the melting point is reported as 119 to 123 °C.
For `CN(CC1(N)CC1)c1ccc(Nc2cc(NC3CC3)n3ncc(C#N)c3n2)cc1C[S+](C)[O-]` (racemic) (as salt: trifluoroacetic acid salt) [Example 65, (±)-5-((4-(((1-Aminocyclopropyl)methyl)(methyl)amino)-3-((methylsulfinyl)methyl)phenyl)amino)-7-(cyclopropylamino)pyrazolo[1,5-a]pyrimidine-3-carbonitrile mono trifluoroacetic acid salt], the melting point was 126 to 130 °C.
`CN(CC(C)(C)N)c1ccc(Nc2cc(NC3CC3)n3ncc(C#N)c3n2)cc1C[S+](C)[O-]` (racemic) (as salt: trifluoroacetic acid salt) [Example 67, (±)-5-((4-((2-Amino-2-methylpropyl)(methyl)amino)-3-((methylsulfinyl)methyl)phenyl)amino)-7-(cyclopropylamino)pyrazolo[1,5-a]pyrimidine-3-carbonitrile mono trifluoroacetic acid salt] gave a melting point of 141 to 145 °C.
`COc1ccc(Nc2cc(NC3CC3)n3ncc(C#N)c3n2)cc1C[S+](C)[O-]` (racemic) [Example 17, (±)-7-(Cyclopropylamino)-5-((4-methoxy-3-((methylsulfinyl)methyl)phenyl)amino)pyrazolo[1,5-a]pyrimidine-3-carbonitrile] showed a Ki (purified CK2α enzyme) of under 2.5 nM and a melting point of 227 to 229 °C.
For `C[S+]([O-])Cc1cc(Nc2cc(NC3CC3)n3ncc(C#N)c3n2)ccc1OC(F)F` (racemic) [Example 19, (±)-7-(Cyclopropylamino)-5-((4-(difluoromethoxy)-3-((methylsulfinyl)methyl)phenyl)amino)pyrazolo[1,5-a]pyrimidine-3-carbonitrile], the Ki (purified CK2α enzyme) was under 2.5 nM and the melting point was 233 to 235 °C.
Work on `C[S+]([O-])Cc1cc(Nc2cc(NC3CC3)n3ncc(C#N)c3n2)ccc1OCCN` (racemic) [Example 31, (±)-5-((4-(2-aminoethoxy)-3-((methylsulfinyl)methyl)phenyl)amino)-7-(cyclopropylamino)pyrazolo[1,5-a]pyrimidine-3-carbonitrile] yielded a Ki (purified CK2α enzyme) of under 2.5 nM and a melting point of 206 to 208 °C.
`CN(C)c1ccc(Nc2cc(NC3CC3)n3ncc(C#N)c3n2)cc1C[S+](C)[O-]` (racemic) [Example 33, (±)-7-(Cyclopropylamino)-5-((4-(dimethylamino)-3-((methylsulfinyl)methyl)phenyl)amino)pyrazolo[1,5-a]pyrimidine-3-carbonitrile] gave a Ki (purified CK2α enzyme) of under 2.5 nM and a melting point of 229 to 233 °C.
In the case of `C[S+]([O-])Cc1cc(Nc2cc(NC3CC3)n3ncc(C#N)c3n2)ccc1N1CCC1` (racemic) [Example 37, (±)-5-((4-(Azetidin-1-yl)-3-((methylsulfinyl)methyl)phenyl)amino)-7-(cyclopropylamino)pyrazolo[1,5-a]pyrimidine-3-carbonitrile], the Ki (purified CK2α enzyme) is reported as under 2.5 nM and the melting point is reported as 204 to 207 °C.
